The source of these data is ChEMBL document CHEMBL1123880, “Beta-adrenoceptor antagonist activity of bivalent ligands. 1. Diamide analogues of practolol” (J Med Chem, 1987).

For one experiment, the species on record is Rattus norvegicus. Description: Ratio of dissociation constant KD' of rat lung to KD' of rat heart. The experiment is classed as tissue-based.
Experiment [1] addresses Beta-1 adrenergic receptor (Rattus norvegicus) (UniProt P18090). The note with it: Heart, Membrane.
Description: Apparent dissociation constant towards beta-1 adrenergic receptor in rat heart membranes using (2-6)x10E-9M of [3AH]-DHA in the presence or absence of 10e-5 M (+/-) propranolol.
Experiment [2] addresses Beta-2 adrenergic receptor (Rattus norvegicus) (UniProt P10608). The following applies: Lung, Membrane.
Description: Apparent dissociation constant towards beta-2 adrenergic receptor in rat lung membranes using (2-6)x10E-9M of [3AH]-DHA in the presence or absence of 10e-5 M (+/-) propranolol.

Beta-1 adrenergic receptor (Rattus norvegicus), sequence (P18090 whole entry, looked up): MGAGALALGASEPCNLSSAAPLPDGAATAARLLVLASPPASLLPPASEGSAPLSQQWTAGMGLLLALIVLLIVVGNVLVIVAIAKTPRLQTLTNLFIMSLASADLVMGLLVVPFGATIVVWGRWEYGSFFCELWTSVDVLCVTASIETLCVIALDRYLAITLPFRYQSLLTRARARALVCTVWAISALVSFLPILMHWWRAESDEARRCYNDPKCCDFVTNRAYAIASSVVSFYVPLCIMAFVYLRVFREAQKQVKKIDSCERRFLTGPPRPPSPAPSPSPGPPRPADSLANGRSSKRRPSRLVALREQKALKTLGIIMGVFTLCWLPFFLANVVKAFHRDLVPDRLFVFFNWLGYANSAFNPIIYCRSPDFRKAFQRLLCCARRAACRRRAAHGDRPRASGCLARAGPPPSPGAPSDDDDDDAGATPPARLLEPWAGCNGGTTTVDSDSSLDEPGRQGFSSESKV
Beta-2 adrenergic receptor (Rattus norvegicus), sequence (P10608 whole entry, looked up): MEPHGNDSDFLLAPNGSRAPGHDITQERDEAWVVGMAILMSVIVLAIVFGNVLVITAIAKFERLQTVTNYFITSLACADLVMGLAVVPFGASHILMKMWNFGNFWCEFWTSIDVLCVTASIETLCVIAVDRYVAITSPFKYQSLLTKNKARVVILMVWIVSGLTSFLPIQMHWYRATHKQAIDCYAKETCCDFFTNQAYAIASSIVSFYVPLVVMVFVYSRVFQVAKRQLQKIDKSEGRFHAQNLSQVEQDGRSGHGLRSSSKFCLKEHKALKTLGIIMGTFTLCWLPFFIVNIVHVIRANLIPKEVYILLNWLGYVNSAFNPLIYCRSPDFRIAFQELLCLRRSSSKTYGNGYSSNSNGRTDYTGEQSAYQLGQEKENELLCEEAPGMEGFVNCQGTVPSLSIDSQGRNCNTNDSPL

For the compound `CC(C)NCC(O)COc1ccc(NC(=O)CCCCCCCCC(=O)Nc2ccc(OCC(O)CNC(C)C)cc2)cc1` (configuration not stated), the Ratio in the experiment filed under Rattus norvegicus worked out at 14. For the same compound, the KD' in experiment [1] stood at 0.1 µM; in experiment [2], 1.4 µM.
Turning to `CC(C)NCC(O)COc1ccc(NC(=O)CCCCC(=O)Nc2ccc(OCC(O)CNC(C)C)cc2)cc1` (configuration not stated), the Ratio in the experiment listed under Rattus norvegicus worked out at 7.5. For the same compound, the KD' in experiment [1] was 9 µM; in experiment [2], 67.5 µM.
Turning to `CC(C)NCC(O)COc1ccc(NC(=O)CCCCCCC(=O)Nc2ccc(OCC(O)CNC(C)C)cc2)cc1` (configuration not stated), the Ratio in the experiment filed under Rattus norvegicus was found to be 0.9. Besides, the figures for the KD' in experiment [1] and in experiment [2] were 4.4 µM and 3.9 µM, respectively.
`CC(C)NCC(O)COc1ccc(NC(=O)CN2CCN(CC(=O)Nc3ccc(OCC(O)CNC(C)C)cc3)CC2)cc1` (configuration not stated): the Ratio in the experiment filed under Rattus norvegicus amounted to 13.4. For the same compound, the KD' came out at 2.1 µM in experiment [1] and 28.1 µM in experiment [2].
As to `CC(C)NCC(O)COc1ccc(NC(=O)CNCCCCCCNCC(=O)Nc2ccc(OCC(O)CNC(C)C)cc2)cc1` (configuration not stated), the Ratio in the experiment listed under Rattus norvegicus is 5.6. In addition, the values for the KD' in experiment [1] and in experiment [2] were 5 µM and 28.1 µM, respectively.
`CC(C)NCC(O)COc1ccc(NC(=O)CNCCCCCCCCNCC(=O)Nc2ccc(OCC(O)CNC(C)C)cc2)cc1` (configuration not stated): the Ratio in the experiment listed under Rattus norvegicus came out at 7.8. Also, the KD' in experiment [1] was determined as 0.5 µM; in experiment [2], 3.9 µM.
For `CC(=O)Nc1ccc(OCC(O)CNC(C)C)cc1` (configuration not stated), the Ratio in the experiment listed under Rattus norvegicus was found to be 5.9. For the same compound, the KD' stood at 6.2 µM in experiment [1] and 36.5 µM in experiment [2].
In the same order, the values of `CC(C)NCC(O)COc1ccc(NC(=O)CCC(=O)Nc2ccc(OCC(O)CNC(C)C)cc2)cc1` (configuration not stated) are 1.7, 16.3 µM and 28.1 µM.
Take `CC(C)NCC(O)COc1ccc(NC(=O)CNCCCCNCC(=O)Nc2ccc(OCC(O)CNC(C)C)cc2)cc1` (configuration not stated): the Ratio in the experiment listed under Rattus norvegicus came out at 5.8. Moreover, the KD' amounted to 32.2 µM in experiment [1] and 186 µM in experiment [2].
